Measurements reported in publication PMC9573294, “AVA-NP-695 Selectively Inhibits ENPP1 to Activate STING Pathway and Abrogate Tumor Metastasis in 4T1 Breast Cancer Syngeneic Mouse Model” (Molecules, 2022).

Biological target: T1, Ectonucleotide pyrophosphatase/phosphodiesterase 1 (ENPP1) (Homo sapiens, UniProt P22413)
T1 construct: Human recombinant ENPP1 (rENPP1)
T1 sequence (P22413 98-925 limits assumed): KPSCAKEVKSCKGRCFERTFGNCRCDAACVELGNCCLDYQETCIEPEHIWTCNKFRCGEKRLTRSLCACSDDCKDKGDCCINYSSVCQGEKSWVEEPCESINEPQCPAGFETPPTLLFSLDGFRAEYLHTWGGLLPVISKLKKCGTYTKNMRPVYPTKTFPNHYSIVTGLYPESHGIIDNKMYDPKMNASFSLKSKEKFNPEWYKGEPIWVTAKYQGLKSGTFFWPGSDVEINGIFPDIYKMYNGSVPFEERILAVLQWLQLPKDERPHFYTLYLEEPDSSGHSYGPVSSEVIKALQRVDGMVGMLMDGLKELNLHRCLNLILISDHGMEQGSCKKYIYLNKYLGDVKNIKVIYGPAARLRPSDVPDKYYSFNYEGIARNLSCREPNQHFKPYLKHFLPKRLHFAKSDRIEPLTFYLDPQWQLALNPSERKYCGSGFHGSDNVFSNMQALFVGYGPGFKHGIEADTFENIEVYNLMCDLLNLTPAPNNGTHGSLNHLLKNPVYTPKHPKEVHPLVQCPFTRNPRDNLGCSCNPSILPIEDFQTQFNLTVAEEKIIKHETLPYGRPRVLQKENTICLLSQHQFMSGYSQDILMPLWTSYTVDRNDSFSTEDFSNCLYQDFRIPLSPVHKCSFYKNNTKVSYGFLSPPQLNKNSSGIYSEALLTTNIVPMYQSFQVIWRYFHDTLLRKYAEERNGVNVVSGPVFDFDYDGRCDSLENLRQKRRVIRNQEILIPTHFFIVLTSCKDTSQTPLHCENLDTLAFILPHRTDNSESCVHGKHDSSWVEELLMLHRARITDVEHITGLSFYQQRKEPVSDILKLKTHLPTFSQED
Assay: enzymatic assay with p-Nph-5'-TMP substrate (Ki […] with […]'[…]'-cGAMP and […] with p-NPh-5'-TMP also printed)
Format: biochemical

IC50: 14 ± 2 nM
Substance: AVA-NP-695
